Laboratory results published in patent publication US20080221205A1, “FURAN DERIVATIVES FOR PREVENTING AND CURING OSTEOPOROSIS AND PHARMACEUTICAL COMPOSITIONS CONTAINING THE SAME” (priority 2002, published 2008).
“Also recorded” adds a separate entry of the source.

Columns and labels:
[1] = test system: ovariectomized white mice; assay: Therapeutic effect on osteoporosis: tibia histology, oral administration from four weeks after ovariectomy; type: in vivo; conditions: four weeks to develop osteoporosis, then oral 220 μl/day for four weeks, versus control
Method: In order to evaluate effects of the compound of the present invention on treatment and prevention of osteoporosis, female white mice with osteoporosis induced by ovariectomy were used as a disease model. After ovariectomy, mice were administered with the compound of the present invention. Tibias were dissected from the mice, and observed histologically.
After anesthetizing female white mice with 100 mg/kg of Ketamine (Ketara) and 0.15 ml/kg of 2% Xylazine (Rompun), the lumbar dorsum is shaved bilaterally and the exposed skin was prepared for aseptic surgery by a 10% povidone-iodine scrub followed by a 70% alcohol wipe.
A 1-cm incision was made in the central region of the abdomen, and the ovary was identified along with the uterus with caution not to damage the main organs such as the liver and diaphragm. After ligating the uterus with a thread for suturing, the exposed ovary was severed toward both sides and removed. Thereafter, each organ was relocated to its original position, and the incision was closed with a thread for suturing in an interrupted pattern. After ovariectomy, the mice were injected with 50 mg/kg of cefazolin antibiotic for prevention of infection with pathogens.
In order to evaluate therapeutic effect of the Compound 1 on osteoporosis, after ovariectomy, the mice were fed with solid feedstuff for four weeks. […]

[2] = test system: osteoclast formation; assay: Inhibition rate of furan derivatives versus osteoclast formation (TRAP staining); type: cell-based, mice; conditions: TRAP-positive multinucleated cells, untreated control set as 100%
How it was run: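 Non-adherent mouse bone-marrow osteoclast precursors cultured 8 days with 20 ng/ml M-CSF and 30 ng/ml RANKL in presence of compound. TRAP-positive cells with ≥3 nuclei counted; inhibition expressed relative to untreated control set at 100%.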

## O=Cc1ccc(CO)o1 [Compound 1, 5-hydroxymethylfuran-2-carboxyaldehyde]
[1]
  Trabecular bone density of tibia, light microscopy: just a slight decrease in trabecular bone density; also recorded: no trabecular bone loss
[2]; 0.1 μM
  Inhibition rate against osteoclast formation, %: 0%
[2]; 1 μM
  Inhibition rate against osteoclast formation, %: 0%
[2]; 10 μM
  Inhibition rate against osteoclast formation, %: 30%
